Patent US11523610B2, “Regulating plant growth using a diapocarotenoid” (King Abdullah University of Science and Technology, priority 2018, dated 2022)

What was measured:
[1] = tested on: Arabidopsis seedlings (anchor roots after RAM excision); experiment: ANR formation after root apical meristem excision (ANR-RE); assay type: in vivo
From the text: (§1) ANRs were counted in seedlings vertically grown on half strength MS (with 0.5% sucrose +1% agar, 0.5 g/L MES, pH 5.7) media 8 days post-stratification (dps) using a dissection microscope. To investigate ANR formation after root apical meristems (RAM) excision (ANR-RE), RAM of seedlings were excised using sterile scalpels at 5 dps and then grown for another 3 days prior to counting the number of emerged ANRs. RAM of seedlings were excised at 8 dps and then grown for another 3 days prior to counting the number of emerged LRs. For determining the effect of anchorene on lateral roots, the number of emerged lateral roots were counted using a dissection microscope at 8 dps. For primary root length measurements, seedlings were measured using the publicly available ImageJ software (downloaded from rsbweb.nih.gov/ij/) after taking digital photographs. For adventitious root assay, the number of emerged adventitious roots per plant were counted after 5 days of treatment on plates with or without anchorene.
ANR formation under carotenoid-deficient conditions was monitored to determine the role of endogenous carotenoids in ANR development. […] Therefore, ANR formation was monitored after RAM excision (ANR-RE) to stimulate ANR development. ANR measurements were used as an indicator of ANR formation capacity under different conditions. […] Norflurazon (NF) and 2-(4-chlorophenylthio)-triethylamine hydrochloride (CPTA), which block phytoene desaturation and lycopene cyclization, respectively were tested (FIG. 6A). The effect of D15, an inhibitor of CCDs was also investigated. Application of D15 to Arabidopsis seedlings is known to lead to an increase in carotenoid levels.

[2] = tested on: Arabidopsis seedlings (anchor roots); experiment: Anchor root (ANR) emergence/formation in seedlings without RAM excision; assay type: in vivo; conditions: for activity in promoting ANR formation: anchorene isomer and derivatives, concentrations as indicated in FIGS. 3G-H
Protocol: (§2) Sterilized Col-0 and mutants seeds were kept at 4° C. in darkness for 3 days to stimulate seed germination, and then sown on half strength MSO plates (with 0.5% sucrose +1% agar, 0.5g/L MES, pH 5.7) supplemented with the indicated chemicals as described below or in the Figures. Plates were vertically grown in PERCIVAL® growth chambers under long day (16 h light/8 h dark, 22° C., 60% relative humidity, light density: 4000 LUX) LED white light [HYPERIKON® 16 W LED Light Bulb A21, 16 W (100 W Equivalent), CRI92, 1620 Lumens, 4000K (Daylight Glow)] conditions. Light fluorescence rates were measured using a digital LUX meter (PEAKTECH® 5025).
as §1
Prior to the anchor root (ANR) measurements, seeds from 10 ecotypes (Po-0, Is-0, Wu-0, Col-0, Cvi-0, Hi-0, Ove-0, Sav-0, Ler and Kin-0) were harvested from plants grown in long-day photoperiod conditions (16h light/8 h darkness, 22° C., 60% humidity). Seeds of all 10 ecotypes were surfaced sterilized and incubated in sterile water at 4° C. for 8 days, for uniform germination. Natural ANR emergence and ANRC was measured as described above (Anchor root assays) for each ecotype. 20 μM anchorene was used to test the responses of the Po-0 and Is-0 ecotypes to anchorene.
Excision of the root apical meristems (RAM) triggers ANR formation (FIGS. 3C-D). […] About 9% of control Col-0 seedlings developed ANRs under normal conditions, while approximately 50% formed ANRs upon RAM excision (FIGS. 4B-C). […] Higher anchorene concentrations (10 and 20 μM) enhanced this ratio to 97% and 100%, respectively (FIGS. 4B-C). There was also an increase in the number of seedlings that developed two ANRs from 0% in the untreated control to approximately 80% upon application of 20 μM anchorene (FIGS. 4B-C). Using a wide range of concentrations, a dose-response curve was established in the presence and absence of RAM excision. […] Thus, the promotion of ANRs is not caused by inhibiting primary root growth.

[3] = tested on: Arabidopsis root growth (Col-0 seedlings); experiment: Primary root length of Arabidopsis seedlings on treated half MS agar plates; assay type: in vivo; conditions: 25 μM, 7 dps
Protocol: β-cyclocitral, β-ionone and D′orenone (β-Apo-13-caroteneone) (FIG. 1A) were purchased from Buchem (Netherlands). Diapo1, Diapo2, Diapo3, Diapo4, Diapo5, and Diapo6 (FIG. 1B) were synthesized by Buchem (Netherlands). Diapo3 was also synthesized together with D6-anchorene and anchorene derivatives according to the protocol of SCHEME 2. Apocarotenoids and diapocarotenoids were dissolved in acetone to make stock solutions (10 mM). For the screening experiments, each chemical was diluted in half strength Murashige and Skoog (MS) media (with 0.5% sucrose+1% agar, 0.5 g/L MES, pH 5.7) to reach indicated concentrations of 25 μM and 5 μM. A stock solution of 10 mM GR24 (Chiralix, Netherlands) was also made by diluting GR24 in acetone. Stock solutions of D15 (100 mM), Norflurazone (5 mM), and CPTA (50 mM) were made in dimethyl sulfoxide (DMSO). For experiments, these compounds were diluted in concentrations of 125 μM D15, 500 nM Norflurazone, or 100 μM CPTA, respectively. 1-Naphthaleneacetic acid (NAA) and N-1-Naphthylphthalamic Acid (NPA) were purchased from Sigma-Aldrich (Germany) and dissolved in water to make 1 mM stock solutions. For NAA and NPA treatments, media containing 0.1 μM NAA and 1 μM NPA were used. Unless otherwise noted, all commercially available compounds were used as provided without further purification.
as §2, with “([…]®” for “(PEAKTECH®”
as §1
Six previously identified or predicted diapocarotenoids with chain lengths ranging from C9 to C15 (Diapo1-6) (FIG. 1B) and 3 apocarotenoids (FIG. 1C) were selected to identify new carotenoid-derived signals involved in root development). These compounds were selected because they are available and stable at ambient conditions. Diapo1 (C9) is the expected product formed upon cleavage of all-trans-β-apo-10′ carotenal. Diapo2 (C10) results from cleaving the C7, C8 and C15, C15′ double bonds in different carotenoids and is produced by cyanobacterial retinal-forming enzymes from Cm-apocarotenoids. Diapo3 (C10) is a structural isomer of Diapo2 and a predicted cleavage product that can be formed by cutting the C11, C12 and C11′, C12′ bonds in almost all plant carotenoids (FIGS. 1A, 1B and 17). Diapo4 (C12) results from cleaving the C7, C8 and C13′, C14′ bonds in many carotenoids, and is formed by the CCD1 from apo-10′-lycopenal.

[4] = tested on: pDR5::LUC seedlings; experiment: Luciferase assay in pDR5::LUC auxin marker line; assay type: in vivo, Arabidopsis; conditions: 1 μM NF, 20 μM anchorene
Protocol: Luciferase activity was assayed as previously described. Briefly, 1 mL of 5 mM Potassium Luciferin (Gold Biotechnology®) dissolved in water was directly applied to pDR5:LUC seedlings grown vertically on treated half strength MS plates. The luciferin solution was allowed to dry for 5-10 minutes in the dark, at room temperature. Seedlings were then imaged using a Lumazone™ CA automated Chemiluminescence system. Seven minute exposure times were used.
A pDR5::LUC line, which marks LR prebranch sites, was used to track ANR development. […] ANR primordia initiation was observed as early as 3 dps, in anchorene treated pDR5::LUC and 158 pDR5rev::GFP seedling (FIGS. 5A-C).

[5] = LC-MS quantification of anchorene in Arabidopsis tissues
Protocol: About 30 mg (30-40 mg) of freeze-dried and ground Arabidopsis seedlings tissues were extracted using 1 mL of acetonitrile with anti-oxidant [0.1% butylated hydroxytoluene (BHT)] for 15 min in an ultrasonic bath (Branson® 5510EDTH, 25° C., 15 min), followed by centrifugation for 8 min at 13000 rpm at 4° C. The collected supernatant was dried using a concentrator (Labconco RapidVap® System). The extract was derivatized (SCHEME 3) with 50 μL of derivatization solution containing 5 mg/mL derivatization reagent (N^2,N^2,N^4,N^4-tetraethyl-6-hydrazineyl-1,3,5-triazine-2,4-diamine) (Chemspace) and 1% formic acid in methanol at 37° C. for 15 min. Then the sample solution was diluted to 150 μL with 1% formic acid in methanol and filtered by using 0.22 μm filter before LC-MS analysis.
The quantitative analysis of derivative anchorene were carried out on HPLC-Q-Trap MS/MS. Chromatographic separation was achieved on an Acquity UPLC CSH C18 column (50×2.1 mm; 1.7 μm; Waters) using a mobile phase consisting of water: acetonitrile (95:5, v:v, A) and pure acetonitrile (B), both containing 0.1% formic acid. A gradient was applied, starting with 10% B and increasing to 40% B over 5 min. Then 15% B was increased
within 10 min followed by an increase of 45% B over 2 min. And then 100% B was maintained for 10 min. To equilibrate the column before the next run, the mobile phase was adjusted back to 10% B in 1 min and this concentration was maintained for 8 min prior to the next sample injection. A flow rate of 0.15 mL/min and a column temperature of 40° C. were maintained throughout the run. The eluent of the column was introduced to the mass spectrometer using turbo spray ion source in positive mode. The injection volume was 10 μL. The conditions of the mass spectrometer were set as following: curtain gas: 30; ion spray voltage: 5 kV; temperature: 400° C.; ion source gas 1: 30; ion source gas 2: 40; declustering potential, 55; entrance potential: 10; collision energy: 25; collision cell exit potential: 10. […]

[6] = tested on: pDR5rev::GFP seedlings; experiment: Confocal microscopy of pDR5rev::GFP auxin marker line; assay type: in vivo, Arabidopsis; conditions: single compound, 20 μM anchorene, 1 μM NF
From the text: To examine pDR5Rev::GFP fluorescence at the collet region, live seedlings were directly used for laser scanning confocal microscopy (Zeiss LSM 510 microscope) examination.
For fluorescence intensity quantification of pDR5Rev::GFP and pPIN3::PIN3-GFP marker lines, ImageJ software (rsbweb.nih.gov/ij/) was used after taking confocal microscopy photos. All calculations are background subtracted.

[7] = 1 μM NF, 100 μM CPTA, 150 μM D15, RAM cut at 5 DAG, grown 3 more days

## CC1=CC(=O)CC(C)(C)[C@@]1(O)/C=C/C(C)=C\C(=O)O [ABA, abscisic acid]
[1]; 0.1 and 0.5 μM ABA
  ANR-RE: did not impact

## C\C(=C/C=C/C=C(\C)C(=O)O)C(=O)O [AR di-acid, (2E,4E,6E)-2,7-dimethylocta-2,4,6-trienedioic acid]
[2]
  activity in promoting ANR formation: inactivity

## C\C(=C/C=C/C=C(\C)CO)CO [AR di-alcohol, (2E,4E,6E)-2,7-dimethylocta-2,4,6-triene-1,8-diol]
[2]
  activity in promoting ANR formation: inactivity

## CCOC(=O)/C(C)=C/C=C/C=C(\C)C(=O)OCC [AR di-ethyl ester, diethyl (2E,4E,6E)-2,7-dimethylocta-2,4,6-trienedioate]
[2]
  activity in promoting ANR formation: inactivity

## CCN(CC)CCSc1ccc(Cl)cc1.Cl [CPTA, 2-(4-chlorophenylthio)-triethylamine hydrochloride]
[1]; [7]
  ANR-RE: strongly reduced

## CC(/C=C/C=O)=C\C=C\C=O [Diapo1, 10,14′-diapocarotene-10,14′-dial]
[3]
  inhibition of primary root growth: weak inhibition

## C\C(C=O)=C/C(C)=C/C=C/C=O [Diapo2, 8,15-diapocarotene-8,15-dial]
[2]; 25 μM (FIGS. 3G-H)
  ANR formation: modest increase
[3]
  reduction in primary root growth: approximately 80%

## C\C(C=O)=C/C(C)=C/C=C/C=C/C=O [Diapo4, 8,14′-diapocarotene-8,14′-dial]
[3]
  inhibition of primary root growth: weak inhibition

## C\C(C=O)=C/C=C/C=C/C=C(C)/C=C(\C)C=O [Diapo5, 8,12′-diapocarotene-8,12′-dial]
[3]
  reduction in primary root growth: approximately 80%

## CC1=C[C@H](O/C=C2/C(=O)O[C@@H]3c4ccccc4C[C@H]23)OC1=O [GR24]
[1]; 1 μM GR24
  ANR formation (ANR-RE): inhibited ANR formation

## O=C(O)Cc1cccc2ccccc12 [NAA, 1-Naphthaleneacetic acid]
[1]; 0.1 μM NAA, 1 μM NPA
  ANR-RE: greatly increased

## CNc1cnn(-c2cccc(C(F)(F)F)c2)c(=O)c1Cl [NF, Norflurazon]
[4]
  LUC signal in the collet: clear LUC signal was detected
[5]; 24 hours NF treatment, 2 μM NF
  anchorene content of whole seedlings after NF treatment: decreases
[5]; continuous NF treatment
  anchorene content of whole seedlings after NF treatment: greatly decreases
[1]; [7]
  ANR-RE: strongly reduced
[6]
  GFP signal at the collet / ANR primordia: No significant reduction

## O=C(O)c1ccccc1C(=O)Nc1cccc2ccccc12 [NPA, N-1-Naphthylphthalamic Acid]
[1]; 0.1 μM NAA, 1 μM NPA
  ANR-RE: completely blocked
